Laboratory results reported in paper PMC12017303 (Science Advances, 2025).
≈ marks a conversion by molar mass, not a printed value.

Columns and labels:
in vitro [1] = conditions: human
SARS-CoV-2 M^Pro [2] = target: T1, SARS-CoV-2 M^Pro (Severe acute respiratory syndrome coronavirus 2, UniProt P0DTD1); test: biochemical
in vitro [3] = conditions: PAMPA, pH 7.4
SARS-CoV-2 M^Pro [4] = target: T1, SARS-CoV-2 M^Pro; test: biochemical; remark: listed apart in the source
SARS-CoV-1 M^Pro = SARS-CoV-1 M^Pro (Severe acute respiratory syndrome coronavirus, UniProt P0C6X7); test: biochemical
SARS-CoV-2 M^Pro [5] = target: T1, SARS-CoV-2 M^Pro; format: biochemical
[6] = target: SARS-CoV-2 M^Pro (Cys^145) (Severe acute respiratory syndrome coronavirus 2, UniProt P0DTD1); format: binding
[7] = system: SARS-CoV-2 WA.1 replicon in Vero ACE2 TMPRSS2; test: microbe, parasite or virus in culture; format: cell-based; conditions: Severe acute respiratory syndrome coronavirus 2, Vero, read-out: Replicon replication in Vero ACE2 TMPRSS2 EC50: WA.1
[8] = system: SARS-CoV-2 BA.2.86.1 replicon in Vero ACE2 TMPRSS2; test: microbe, parasite or virus in culture; format: cell-based; conditions: Severe acute respiratory syndrome coronavirus 2, Vero, read-out: Replicon replication in Vero ACE2 TMPRSS2 EC50: BA.2.86.1
[9] = system: SARS-CoV-2 WA.1 (icSARS-CoV-2-mNG) in A549-ACE2^h; test: microbe, parasite or virus in culture; format: cell-based; conditions: Severe acute respiratory syndrome coronavirus 2, read-out: Viral replication in A549-ACE2^h EC50: WA.1
[10] = system: human cytochrome P450 (CYP) isoforms
in vitro [11] = conditions: human, microsomes, pH 7.4
in vitro [12] = conditions: mouse, microsomes, pH 7.4
in vitro [13] = conditions: plasma
CYP2C8 = CYP2C8 (Homo sapiens, UniProt P10632); conditions: 10 μM
[14] = male, CD-1, mouse, in vivo
[15] = in vivo
in vivo [16] = conditions: male, CD-1, mouse; for AUC(0-t): AUClast
in vivo [17] = conditions: mouse
physchem = conditions: pH 7.4, aqueous buffer, kinetic from dmso stock
P-gp (MDR1) = test: in vitro; conditions: dog
HCoV Alpha 229E = test: organism not typed; format: cell-based, HCoV 229E; set-up: SI50 / SI90: unit not given beside the values
HCoV Beta OC43 = test: microbe, parasite or virus in culture; format: cell-based; set-up: SI90 / SI50: unit not given beside the values
[18] = system: SARS-CoV-2 B.1.617.2 (delta); format: cell-based; set-up: SI50 / SI90: unit not given beside the values
[19] = system: SARS-CoV-2 BA.2 (omicron); test: microbe, parasite or virus in culture; format: cell-based; set-up: SI50 / SI90: unit not given beside the values
MERS-CoV EMC = test: microbe, parasite or virus in culture; format: cell-based; set-up: SI50 / SI90: unit not given beside the values
SARS-CoV Urbani = test: microbe, parasite or virus in culture; format: cell-based; set-up: SI90 / SI50: unit not given beside the values
[20] = pH 7.4, plasma protein binding (PPB)
[21] = Middle East respiratory syndrome-related coronavirus, Vero C1008
[22] = Severe acute respiratory syndrome coronavirus, Vero C1008

Chain of CYP2C8 (P10632 whole entry): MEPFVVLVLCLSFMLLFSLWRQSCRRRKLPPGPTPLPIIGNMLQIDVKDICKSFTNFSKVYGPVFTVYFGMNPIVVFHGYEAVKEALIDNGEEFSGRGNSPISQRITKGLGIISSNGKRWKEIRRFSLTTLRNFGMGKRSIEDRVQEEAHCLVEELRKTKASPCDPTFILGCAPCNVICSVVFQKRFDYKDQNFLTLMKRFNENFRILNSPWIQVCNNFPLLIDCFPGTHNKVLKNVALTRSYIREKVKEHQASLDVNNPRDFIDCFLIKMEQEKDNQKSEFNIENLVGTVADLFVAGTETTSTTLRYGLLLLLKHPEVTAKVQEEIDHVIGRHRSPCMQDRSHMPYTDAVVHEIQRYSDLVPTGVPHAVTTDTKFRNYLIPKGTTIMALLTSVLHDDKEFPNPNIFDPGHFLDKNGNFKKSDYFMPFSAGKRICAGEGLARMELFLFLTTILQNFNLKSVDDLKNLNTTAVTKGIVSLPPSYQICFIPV

## O=C1CCN(Cc2cccs2)C(=O)N1Cc1ccc[nH]c1=O [AVI-1084]
In vitro [1]
  CC50: > 100000 nM
  viability at 100 µM: 100%

## O=C1CCN(Cc2cc(Cl)cs2)C(=O)N1Cc1ccc[nH]c1=O [AVI-3318]
SARS-CoV-2 M^Pro [2]
  IC50: 4600 nM
In vitro [1]
  CC50: > 100000 nM
  viability at 100 µM: 88.9%

## O=C1CCN(Cc2ccsc2)C(=O)N1Cc1ccc[nH]c1=O [AVI-3320]
SARS-CoV-2 M^Pro [2]
  IC50: 23000 nM
In vitro [1]
  CC50: > 100000 nM
  viability at 100 µM: 100%

## O=C1CCN(Cc2csc(Cl)c2)C(=O)N1Cc1ccc[nH]c1=O [AVI-3570]
SARS-CoV-2 M^Pro [2]
  IC50: 1500 nM
In vitro [1]
  CC50: > 100000 nM
  viability at 100 µM: 100%

## O=C1CCN(Cc2csc(Cl)c2)C(=O)N1c1cncc2ccccc12 [AVI-3778]
SARS-CoV-2 M^Pro [2]
  IC50: 850 nM
  M^Pro inhibition, result in words: submicromolar potencies
In vitro [1]
  CC50: > 100000 nM
  viability at 100 µM: 95.7%
In vitro [3]
  Papp: 26.4 ×10⁻⁶ cm/s

## O=C1CCN(Cc2cccc(Cl)c2)C(=O)N1c1cncc2ccccc12 [AVI-3779]
SARS-CoV-2 M^Pro [2]
  IC50: 660 nM
  M^Pro inhibition, result in words: submicromolar potencies
In vitro [1]
  CC50: > 100000 nM
  viability at 100 µM: 100%
In vitro [3]
  Papp: 23.9 ×10⁻⁶ cm/s

## O=C1CCN(Cc2cccc(F)c2)C(=O)N1c1cncc2ccccc12 [AVI-3780]
SARS-CoV-2 M^Pro [2]
  IC50: 800 nM
  M^Pro inhibition, result in words: submicromolar potencies
In vitro [1]
  CC50: > 100000 nM
  viability at 100 µM: 100%
In vitro [3]
  Papp: 19.6 ×10⁻⁶ cm/s

## O=C1CCN(Cc2cccc(Cl)c2)C(=O)N1Cc1ccc[nH]c1=O [AVI-3993]
SARS-CoV-2 M^Pro [2]
  IC50: 8500 nM

## O=c1cc(-c2cccc(Cl)c2)[nH]c(=O)n1-c1cncc2ccccc12 [AVI-4301]
SARS-CoV-2 M^Pro [2]
  IC50: 6400 nM
In vitro [1]
  CC50: > 100000 nM
  viability at 100 µM: 100%
In vitro [3]
  Papp: 31.8 ×10⁻⁶ cm/s

## O=c1[nH]c(-c2cccc(Cl)c2)c(-n2nnc3ccccc32)c(=O)n1-c1cncc2ccccc12 [AVI-4303]
SARS-CoV-2 M^Pro [2]
  IC50: 300 nM
In vitro [1]
  CC50: > 100000 nM
  viability at 100 µM: 92.3%
In vitro [3]
  Papp: 6.6 ×10⁻⁶ cm/s

## C#CCn1c(-c2cccc(Cl)c2)c(-n2nnc3ccccc32)c(=O)n(-c2cncc3ccccc23)c1=O [AVI-4692]
SARS-CoV-2 M^Pro [2]
  IC50: 37 nM
SARS-CoV-2 M^Pro [4]
  kinact/KI: 27000 M⁻¹ s⁻¹
SARS-CoV-1 M^Pro
  IC50: 120 nM
SARS-CoV-2 M^Pro [5]
  M^Pro activity after dialysis: activity was not regained
[6]
  covalent adduct by whole protein MS: mass shifts consistent with modification at a single site
[7]
  EC50: 26 nM
[8]
  EC50: 27 nM
[9]
  EC50: 6.8 nM
[10]; 10 μM
  CYP inhibition, result in words: somewhat more potent inhibitor of both CYP2C8 and CYP3A4
In vitro [3]
  Papp: 31.8 ×10⁻⁶ cm/s
In vitro [11]
  half-life: > 2 h
In vitro [12]
  half-life: > 2 h
In vitro [13]; [20]
  fraction unbound: < 0.01

## C#CCn1c(C)c(-n2nnc3cc(F)c(F)cc32)c(=O)n(-c2cncc3ccccc23)c1=O [AVI-4773]
SARS-CoV-1 M^Pro
  IC50: 95 nM
SARS-CoV-2 M^Pro [5]
  M^Pro activity after dialysis: activity was not regained
[6]
  covalent adduct by whole protein MS: mass shifts consistent with modification at a single site
[7]
  EC50: 60 nM
[8]
  EC50: 49 nM
[9]
  EC50: 19 nM
[10]; human, pH 7.4
  inhibition across the CYP panel: ≤ 25%
CYP2C8
  CYP2C8 inhibition: ~ 45%
[14]
  Mouse F: 110
  free concentration in plasma: 4.045 µM
[14]; po, 50 mg/kg
  AUClast: 94700 ng·h/mL
  Plasma T½: 13 h
[15]; mouse, po
  exposure in BALF: ~ 4400 nM
In vivo [16]; F
  bioavailability: 110%
In vivo [16]; iv, 10 mg/kg
  MRT inf: 2.06 h
  clearance: 9.57 mL/min/kg
  half-life: 1.22 h
  AUC(0-t): 17200 ng·h/mL
In vivo [16]; iv, 10 mg/kg, AUCINF
  AUC(0-inf): 17400 ng·h/mL
In vivo [16]; iv, 10 mg/kg, Vss
  Vd: 1.18 L/kg
In vivo [16]; oral bioavailability (%F)
  bioavailability: > 100%
In vivo [16]; po, 50 mg/kg
  half-life: 13 h
  AUC(0-t): 94700 ng·h/mL
In vivo [16]; po, 50 mg/kg, AUCINF
  AUC(0-inf): 273000 ng·h/mL
In vivo [16]; po, 50 mg/kg, AUCinf
  AUC(0-inf): 272000 ng·h/mL
In vivo [16]; po, 50 mg/kg, CMax
  Cmax: 14900 ng/mL
In vivo [16]; po, 50 mg/kg, Cmax
  Cmax: 14900 ng/mL
In vivo [16]; po, 50 mg/kg, TMax
  Tmax: 0.5 h
In vivo [16]; po, 50 mg/kg, Tmax
  Tmax: 0.5 h
In vivo [17]
  Kp: ~0.08
physchem
  solubility: 431 µM (≈ 192 µg/mL)
In vitro [11]
  half-life: > 2 h
In vitro [12]
  half-life: > 2 h
In vitro [13]; pH 7.4, PPB
  fraction unbound: 0.19
In vitro [13]; [20]
  fraction unbound: 0.17
P-gp (MDR1); MDCK-MDR1
  Papp B→A: 70.8 ×10⁻⁶ cm/s
P-gp (MDR1); MDCK-MDR1, MDCK AB
  Papp A→B: 17.8 ×10⁻⁶ cm/s

## O=c1nc(NO)ccn1[C@@H]1O[C@H](CO)[C@@H](O)[C@H]1O [EIDD-1931, reference compound]
HCoV Alpha 229E
  SI50: > 23
  SI90: > 27
HCoV Alpha 229E; read-out: EC50
  EC50: 440 nM
HCoV Alpha 229E; read-out: EC90
  EC90: 370 nM
HCoV Beta OC43
  SI50: 170
  SI90: 190
HCoV Beta OC43; read-out: EC50
  EC50: 35 nM
HCoV Beta OC43; read-out: EC90
  EC90: 32 nM
[18]
  EC50: 170 nM
  EC90: 50 nM
  SI50: 210
  SI90: 720
[19]
  SI50: 810
  SI90: 1000
[19]; read-out: EC50
  EC50: 53 nM
[19]; read-out: EC90
  EC90: 43 nM
Huh7
  CC50: > 10000 nM
Rhabdomyosarcoma
  CC50: 6100 nM

## Cn1cnc(Cn2c(=O)[nH]/c(=N\c3cc4cn(C)nc4cc3Cl)n(Cc3cc(F)c(F)cc3F)c2=O)n1 [ensitrelvir, reference compound]
[15]; CD1, mouse
  Brain, Mean: 47.9 ng/g

## CCC(CC)COC(=O)[C@H](C)N[P@](=O)(OC[C@H]1O[C@@](C#N)(c2ccc3c(N)ncnn23)[C@H](O)[C@@H]1O)Oc1ccccc1 [remdesivir, reference compound]
MERS-CoV EMC
  SI50: 540
  SI90: 51
MERS-CoV EMC; [21]
  EC50: 3.7 nM
  EC90: 39 nM
SARS-CoV Urbani
  SI50: > 83
  SI90: > 71
SARS-CoV Urbani; [22]
  EC50: 120 nM
  EC90: 140 nM
